Among the data in patent publication US10428044B2, “3-amino-1,5,6,7-tetrahydro-4H-indol-4-ones” (Bayer Pharma Aktiengesellschaft, priority 2014, dated 2019) are IC50 values, retold here.

Sequence of (recombinant) catalytic domain of human Bub1 (amino acids 704-1085) (O43683 704-1085): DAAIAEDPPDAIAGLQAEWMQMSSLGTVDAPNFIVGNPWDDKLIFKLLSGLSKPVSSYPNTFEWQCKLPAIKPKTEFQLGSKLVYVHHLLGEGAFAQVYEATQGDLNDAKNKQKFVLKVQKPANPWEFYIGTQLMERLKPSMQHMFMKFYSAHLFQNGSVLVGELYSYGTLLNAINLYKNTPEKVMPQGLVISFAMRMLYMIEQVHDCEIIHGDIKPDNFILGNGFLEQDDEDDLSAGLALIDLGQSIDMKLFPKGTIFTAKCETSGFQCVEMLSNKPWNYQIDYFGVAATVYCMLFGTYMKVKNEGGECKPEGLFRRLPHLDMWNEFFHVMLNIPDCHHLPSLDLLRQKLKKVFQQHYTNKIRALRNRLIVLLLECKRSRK

For this assay, the target named is (recombinant) catalytic domain of human Bub1 (amino acids 704-1085) (Homo sapiens (Human), UniProt O43683). Kind of assay: Bub1 kinase assay (TR-FRET). Particulars: ATP 10 μM final, peptide substrate 1 μM final, 60 min at 22° C., read-out: Biological Assay: Bub1 kinase assay median IC50. In kind it is biochemical. In outline:
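Compounds were serially diluted 1:3.4 from 2 mM DMSO stocks and incubated with the enzyme reaction for 60 min at 22° C. The reaction was stopped with EDTA, and biotinylated peptide phosphorylation was read by TR-FRET using Eu anti-mouse IgG, anti-phosphoserine antibody and streptavidin-XL665. IC50 was fitted by 4-parameter logistic to inhibition normalized to no-inhibitor and no-enzyme controls.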
(Time-resolved FRET reads energy transfer from a long-lived donor to a nearby acceptor.)
As usually defined, the IC50 is the concentration needed to halve the response being measured. Turning to `CC(=O)Nc1cccc(Nc2c(-c3ccncc3)[nH]c3c2C(=O)CC(C)(C)C3)c1` [Example 109, N-(3-{[6,6-dimethyl-4-oxo-2-(pyridin-4-yl)-4,5,6,7-tetrahydro-1H-indol-3-yl]amino}phenyl)acetamide], the IC50 amounted to 4560 nM. With `O=C1CCCc2[nH]c(-c3cc(F)ncc3F)c(Nc3ccccc3)c21` [Example 218, 2-(2,5-difluoropyridin-4-yl)-3-(phenylamino)-1,5,6,7-tetrahydro-4H-indol-4-one] the figure was 906 nM. With `CC1(C)CC(=O)c2c([nH]c(-c3ccnc(NCc4cncs4)c3)c2Nc2ccccc2)C1` [Example 508, 6,6-dimethyl-3-(phenylamino)-2-{2-[(1,3-thiazol-5-ylmethyl)amino]pyridin-4-yl}-1,5,6,7-tetrahydro-4H-indol-4-one] the figure was 193 nM; with `CCNC(=S)Nc1cc(-c2[nH]c3c(c2Nc2ccccc2)C(=O)CCC3)ccn1` [Example 393, 1-ethyl-3-{4-[4-oxo-3-(phenylamino)-4,5,6,7-tetrahydro-1H-indol-2-yl]pyridin-2-yl}thiourea], 233 nM; with `O=C1CCCc2[nH]c(-c3ccnc(Br)c3)c(Nc3ccccc3)c21` [Example 152, 2-(2-bromopyridin-4-yl)-3-(phenylamino)-1,5,6,7-tetrahydro-4H-indol-4-one], 239 nM. The figure for `COc1ccc(Nc2c(-c3ccncc3)[nH]c3c2C(=O)CC(C)(C)C3)c(OC)c1` [Example 62, 3-[(2,4-dimethoxyphenyl)amino]-6,6-dimethyl-2-(pyridin-4-yl)-1,5,6,7-tetrahydro-4H-indol-4-one] is 167 nM. `COc1cc(C(=O)Nc2cc(-c3[nH]c4c(c3Nc3ccccc3)C(=O)CC(C)(C)C4)ccn2)ccc1F` [Example 474, N-{4-[6,6-dimethyl-4-oxo-3-(phenylamino)-4,5,6,7-tetrahydro-1H-indol-2-yl]pyridin-2-yl}-4-fluoro-3-methoxybenzamide]: the IC50 was 8.63 nM.

As for `O=C1CCCc2[nH]c(-c3ccncc3)c(Nc3ccccc3)c21` [Example 9, 3-(phenylamino)-2-(pyridin-4-yl)-1,5,6,7-tetrahydro-4H-indol-4-one], the IC50 worked out at 12.1 nM.

In the case of `CC(C)c1ccccc1Nc1c(-c2ccncc2)[nH]c2c1C(=O)CC(C)(C)C2` [Example 88, 6,6-dimethyl-3-{[2-(propan-2-yl)phenyl]amino}-2-(pyridin-4-yl)-1,5,6,7-tetrahydro-4H-indol-4-one], the IC50 was determined as 2610 nM.

Regarding `Cn1ccc(C(=O)Nc2cc(-c3[nH]c4c(c3Nc3ccccc3)C(=O)CC(C)(C)C4)ccn2)n1` [Example 504, N-{4-[6,6-dimethyl-4-oxo-3-(phenylamino)-4,5,6,7-tetrahydro-1H-indol-2-yl]pyridin-2-yl}-1-methyl-1H-pyrazole-3-carboxamide], the half-maximal inhibitory concentration (IC50) worked out at 6.14 nM. The figure for `CCCn1c2c(c(Nc3ccccc3)c1-c1ccncc1)C(=O)CC(C)(C)C2` [Example 182, 6,6-dimethyl-3-(phenylamino)-1-propyl-2-(pyridin-4-yl)-1,5,6,7-tetrahydro-4H-indol-4-one] is 68.9 nM; for `Cn1ncnc1COCC(=O)Nc1cc(-c2[nH]c3c(c2Nc2ccccc2)C(=O)CCC3)ccn1` [Example 494, 2-[(1-methyl-1H-1,2,4-triazol-5-yl)methoxy]-N-{4-[4-oxo-3-(phenylamino)-4,5,6,7-tetrahydro-1H-indol-2-yl]pyridin-2-yl}acetamide] it is 10.9 nM.

`CC1(C(=O)Nc2cc(-c3[nH]c4c(c3Nc3ccccc3)C(=O)CCC4)ccn2)CC1` [Example 228, 1-methyl-N-{4-[4-oxo-3-(phenylamino)-4,5,6,7-tetrahydro-1H-indol-2-yl]pyridin-2-yl}cyclopropanecarboxamide]: the IC50 turned out to be 56.7 nM.

`CCOc1cc(F)ccc1Nc1c(-c2ccncc2)[nH]c2c1C(=O)CC(C)(C)C2` [Example 125, 3-[(2-ethoxy-4-fluorophenyl)amino]-6,6-dimethyl-2-(pyridin-4-yl)-1,5,6,7-tetrahydro-4H-indol-4-one]: the IC50 came to 454 nM. Turning to `CC1(C)CC(=O)c2c([nH]c(-c3ccncc3)c2Nc2ccc3[nH]ncc3c2)C1` [Example 100, 3-(1H-indazol-5-ylamino)-6,6-dimethyl-2-(pyridin-4-yl)-1,5,6,7-tetrahydro-4H-indol-4-one], the concentration for half-maximal inhibition (IC50) was 95.2 nM.

With `CC(=O)Nc1cc(-c2[nH]c3c(c2Nc2cccc(F)c2)C(=O)CCC3)ccn1` [Example 40, N-(4-{3-[(3-fluorophenyl)amino]-4-oxo-4,5,6,7-tetrahydro-1H-indol-2-yl}pyridin-2-yl)acetamide], the IC50 is 15.2 nM. The figure for `CC1(C)CC(=O)c2c([nH]c(-c3ccncc3)c2Nc2cc(F)cc(Cl)c2)C1` [Example 19, 3-[(3-chloro-5-fluorophenyl)amino]-6,6-dimethyl-2-(pyridin-4-yl)-1,5,6,7-tetrahydro-4H-indol-4-one] is 19.5 nM; for `O=C1CCCc2[nH]c(-c3ccnc(NC(=O)[C@H]4C[C@@H]4F)c3)c(Nc3ccccc3)c21` [Example 250, (R,S/S,R)-2-fluoro-N-{4-[4-oxo-3-(phenylamino)-4,5,6,7-tetrahydro-1H-indol-2-yl]pyridin-2-yl}cyclopropanecarboxamide] it is 10 nM; for `CC1(C)CC(=O)c2c([nH]c(-c3ccncc3)c2Nc2cncc3ccccc23)C1` [Example 64, 3-(isoquinolin-4-ylamino)-6,6-dimethyl-2-(pyridin-4-yl)-1,5,6,7-tetrahydro-4H-indol-4-one] it is 1820 nM. With `O=C(Nc1cc(-c2[nH]c3c(c2Nc2ccccc2)C(=O)CCC3)ccn1)c1ccccc1F` [Example 264, 2-fluoro-N-{4-[4-oxo-3-(phenylamino)-4,5,6,7-tetrahydro-1H-indol-2-yl]pyridin-2-yl}benzamide] the figure was 13.9 nM. With `C#CCOCC(=O)Nc1cc(-c2[nH]c3c(c2Nc2ccccc2)C(=O)CCC3)ccn1` [Example 336, N-{4-[4-oxo-3-(phenylamino)-4,5,6,7-tetrahydro-1H-indol-2-yl]pyridin-2-yl}-2-(prop-2-yn-1-yloxy)acetamide] the figure was 8.53 nM; with `O=C1CC2(CC2)Cc2[nH]c(-c3ccncc3F)c(Nc3ccccc3)c21` [Example 208, 2′-(3-fluoropyridin-4-yl)-3′-(phenylamino)-1′,7′-dihydrospiro[cyclopropane-1,6′-indol]-4′(5′H)-one], 6.39 nM. With `CCn1c2c(c(Nc3ccccc3)c1-c1ccncc1Cl)C(=O)CCC2` [Example 177, 2-(3-chloropyridin-4-yl)-1-ethyl-3-(phenylamino)-1,5,6,7-tetrahydro-4H-indol-4-one], the IC50 amounted to 5670 nM. With `CC1(C)CC(=O)c2c([nH]c(-c3ccncc3)c2Nc2cc(F)ccc2CO)C1` [Example 487, 3-{[5-fluoro-2-(hydroxymethyl)phenyl]amino}-6,6-dimethyl-2-(pyridin-4-yl)-1,5,6,7-tetrahydro-4H-indol-4-one] the figure was 3.35 nM; with `CC1(C)CC(=O)c2c([nH]c(-c3ccncc3)c2Nc2cnccc2CO)C1` [Example 510, 3-{[4-(hydroxymethyl)pyridin-3-yl]amino}-6,6-dimethyl-2-(pyridin-4-yl)-1,5,6,7-tetrahydro-4H-indol-4-one], 25.3 nM; with `CC(C)C1CC(=O)c2c([nH]c(-c3ccnc(N)c3)c2Nc2cccc(F)c2)C1` (stereo not shown) [Example 50, 2-(2-aminopyridin-4-yl)-3-[(3-fluorophenyl)amino]-6-(propan-2-yl)-1,5,6,7-tetrahydro-4H-indol-4-one], 36.3 nM. The figure for `CC1(C)CC(=O)c2c([nH]c(-c3ccncc3)c2Nc2cccc(O)c2)C1` [Example 89, 3-[(3-hydroxyphenyl)amino]-6,6-dimethyl-2-(pyridin-4-yl)-1,5,6,7-tetrahydro-4H-indol-4-one] is 288 nM. With `CC(C)Nc1cc(-c2[nH]c3c(c2Nc2ccccc2)C(=O)CCC3)ccn1` [Example 364, 3-(phenylamino)-2-[2-(propan-2-ylamino)pyridin-4-yl]-1,5,6,7-tetrahydro-4H-indol-4-one] the figure was 502 nM; with `CC1(C)OC[C@@H](C(=O)Nc2cc(-c3[nH]c4c(c3Nc3ccccc3)C(=O)CCC4)ccn2)O1` [Example 460, (4S)-2,2-dimethyl-N-{4-[4-oxo-3-(phenylamino)-4,5,6,7-tetrahydro-1H-indol-2-yl]pyridin-2-yl}-1,3-dioxolane-4-carboxamide], 19.7 nM; with `CC1(C)CC(=O)c2c(Nc3ccccc3)c(-c3ccncc3)n(CC(F)(F)F)c2C1` [Example 180, 6,6-dimethyl-3-(phenylamino)-2-(pyridin-4-yl)-1-(2,2,2-trifluoroethyl)-1,5,6,7-tetrahydro-4H-indol-4-one], 199 nM. As to `CC1(C)CC(=O)c2c([nH]c(-c3cc[n+](CC(F)(F)F)cc3)c2Nc2ccccc2)C1` [Example 190, 4-[6,6-dimethyl-4-oxo-3-(phenylamino)-4,5,6,7-tetrahydro-1H-indol-2-yl]-1-(2,2,2-trifluoroethyl)pyridinium trifluoromethanesulfonate], the concentration for half-maximal inhibition (IC50) stood at 475 nM. The figure for `CC1(C)CC(=O)c2c([nH]c(-c3ccnc(N4CCCC4)c3)c2Nc2ccccc2)C1` [Example 126, 6,6-dimethyl-3-(phenylamino)-2-[2-(pyrrolidin-1-yl)pyridin-4-yl]-1,5,6,7-tetrahydro-4H-indol-4-one] is 14500 nM. The figure for `CC(=O)c1cccc(Nc2c(-c3ccncc3)[nH]c3c2C(=O)CC(C)(C)C3)c1` [Example 113, 3-[(3-acetylphenyl)amino]-6,6-dimethyl-2-(pyridin-4-yl)-1,5,6,7-tetrahydro-4H-indol-4-one] is 174 nM. With `COc1cnccc1-c1[nH]c2c(c1Nc1ccccc1)C(=O)CC(C)(C)C2` [Example 403, 2-(3-methoxypyridin-4-yl)-6,6-dimethyl-3-(phenylamino)-1,5,6,7-tetrahydro-4H-indol-4-one] the figure was 9.3 nM.
